# According to US20150342937A1, “BOWEL CLEANSING COMPOSITION” (priority 2013, published 2015):
# Experiments:
# intestinal bacteria [1] = test: Bacterial culture test of mixed stool/test solutions after gas measurement; type: cell-based; details: average; mixed solutions cultured for 48 hours at SCL
# Description: Following the measurement of gas concentration as described above, the mixed solutions in the containers were submitted to a laboratory at the Seoul Medical Science Institute (SCL), a CAP accredited and Korean Society for Laboratory Medicine (KSLM)/Laboratory Medicine Foundation accredited institution, where they were cultured for 48 hours and measured for the resulting colony counts.
# intestinal bacteria [2] = test: Bacterial culture test, 5% diluted solution of stool from one subject; type: cell-based; details: 10 ml 5% stool suspension + 15 ml test solution
# Description: With respect to Example 2 in which xylitol was used as the first cleansing ingredient, in order to test the antibacterial effect of the solution against intestinal bacteria, a 5% diluted solution of stool was prepared from a stool sample obtained from one subject. […] Then, each of these mixed solutions was split in half and submitted to two different testing institutions, the Seoul Medical Science Institute (SCL), which is a CAP accredited and KSLM/Laboratory Medicine Foundation accredited institution, and the Green Cross Laboratories (GC Labs), which is a KSLM accredited institution, for bacterial culture tests.
# [3] = scale proposed by Nunes et al. 2008; cited from earlier work
# [4] = 15 g intravenously over 30 minutes twice weekly for four weeks; phase I study 2013; cited from earlier work
smiles,measurement,setting,value
"OC[C@@H](O)[C@@H](O)[C@H](O)[C@@H](O)CO [compound 4, sorbitol]",Colony count,intestinal bacteria [1],4.5 × 10^8 CFU/mL
"OC[C@@H](O)[C@@H](O)[C@H](O)[C@H](O)CO [compound 5, mannitol]",Colony count,intestinal bacteria [1],4.0 × 10^8 CFU/mL
"OC[C@@H](O)[C@H](O)[C@@H](O)CO [Reference Example 6, xylitol]",Colony count (GC Labs),intestinal bacteria [2]; Green Cross Laboratories,10.2 × 10^6 CFU/mL
same,Colony count (SCL),intestinal bacteria [2]; Seoul Medical Science Institute,60 × 10^6 CFU/mL
OC[C@@H](O)[C@@H](O)[C@H](O)[C@H](O)CO [mannitol],rate of adequate bowel cleansing,[3],75%
O=C1O[C@H]([C@@H](O)CO)C(O)=C1O [ascorbic acid],blood ascorbic acid level,[4],at least 350 mg/dL
